The record followed here is patent US11846639B2, “Ligand discovery for T cell receptors” (priority 2014, dated 2023).

Residues, ends and D or L forms follow the SMILES beside them.

One assay concerns the target 5cc7 TCR. Description: Surface plasmon resonance affinity of peptide-I-Ek for 5cc7 TCR. To be noted: SPR, peptide exchanged into soluble I-Ek. Type of assay: binding, murine. From the text: Refolded Murine TCRs for crystallography and affinity measurements. Refolded 2B4, 226, and 5cc7 were created essentially as described. For […] and 5c2 crystal structures, the 5c1 and 5c2 peptides were fused to the N-terminus of 5cc7β via a 10-amino acid GlySer linker. TCRs were purified via size exclusion chromatography and assayed via SDS-PAGE to ensure 1:1 α:β stoichiometry. If there were an excess of TCRβ, ββ homodimer was purified away from αβ heterodimer via ion exchange chromatography on a MonoQ column (GE Healthcare) using a 20 mM Tris pH 8/20 mM Tris pH8+ 500 mM NaCl buffer system. Proteins were then reexchanged into HBS for further use.
Surface plasmon resonance. Affinity measurements for peptides bound to I-Ek for 226, 2B4, and 5cc7 TCRs were determined via surface plasmon resonance on a Biacore T100 (GE Healthcare). 10 μM of peptide of interest was added to biotinylated Clip-I-Ek. 1 U thrombin/100 μg MHC was added and incubated at 37°. After 1 hour, pH was lowered by adding sodium cacodylate pH 6.2 to 30 mM and sample was incubated at 37° overnight. Samples were then neutralized with 40 mM HEPES pH 7.2 and stored at 4° until use. pMHC exchanged with the peptide of interest were bound to a Biacore SA chip (GE Healthcare) at a low surface density (100-200 RU) to ensure no recapture of analyte. I-Ek exchanged with a null peptide (MCC K99E) was used as the reference surface. […]
(SPR reads the build-up and loss of mass on a sensor chip optically.)

The subject of the next assay is 5cc7 T cell blasts. Type of assay: cell-based, mice. To be noted: 5cc7 T cells; peptide presented by I-Ek; read-out: signaling potency (EC50). As for the experimental part:
Selection of library derived I-Ek peptides for further characterization. Peptides were chosen from the deep sequencing data across a wide range of sequence prevalence for further study via SPR, activity, and structural characterization. Peptides were chosen that were recognized by 1, 2, or all 3 I-E^k reactive TCRs. All peptides were tested for activity with both 2B4 and 5cc7 T cell clones regardless of for which TCR they were initially selected. A subset of peptides was chosen to further characterize via SPR. The 2A peptide that was structurally characterized in FIG. 5A was discovered by manual curation of an I-Ek peptide library. 2A is highly homologous to peptides represented in the deep sequencing data and co-clusters with MCC.
Activity assay for I-Ek-selected peptides. Lymphocytes were isolated from 5cc7 or 2B4 TCR transgenic Rag−/− mice. […] CD69 upregulation was measured using an Accuri C6 flow cytometer with an autosampler (BD) by measuring CD69 MFI in the CD4+ gate. Data was then normalized and EC50s measured via Prism. IL-2 release was measured in technical triplicates via anti-IL-2 Elisa (Ready-setgo mouse IL-2 ELISA kit, eBioscience 88-7024), as recommended by the manufacturer. […] Absorbance was measured via SpectraMax Paradigm (Molecular Devices), with EC50 determined via Graphpad Prism.

Take `CC[C@H](C)[C@H](NC(=O)[C@H](CC(C)C)NC(=O)[C@H](CC(=O)O)NC(=O)[C@H](C)N)C(=O)N[C@@H](C)C(=O)N[C@@H](Cc1ccc(O)cc1)C(=O)N[C@@H](CC(C)C)C(=O)N[C@@H](CCCCN)C(=O)N[C@@H](CCC(N)=O)C(=O)N[C@@H](C)C(=O)N[C@H](C(=O)N[C@@H](CCCCN)C(=O)O)[C@@H](C)O` [MCC, reference compound] (H-ADLIAYLKQATK-OH; N-terminus and C-terminus assumed): at 5cc7 TCR, binding was characterised by a dissociation constant (Kd) of 41 µM.

For `CC(C)C[C@H](NC(=O)[C@H](Cc1ccccc1)NC(=O)[C@H](Cc1ccccc1)NC(=O)[C@H](C)NC(=O)[C@@H](NC(=O)CNC(=O)[C@H](CC(N)=O)NC(=O)[C@H](C)N)C(C)C)C(=O)N[C@H](C(=O)N1CCC[C@H]1C(=O)N[C@@H](Cc1ccccc1)C(=O)N[C@@H](CCCCN)C(=O)O)[C@@H](C)O` [compound 50] (H-ANGVAFFLTPFK-OH; N-terminus and C-terminus assumed), in the assay with 5cc7 T cell blasts, the EC50 (commonly the concentration that produces a half-maximal response) amounted to 1.5 µM. In addition, the Kd – broadly, a measure of binding affinity in units of concentration – at 5cc7 TCR turned out to be 115 µM.
